Experimental data reported in patent US20100210584A1, “LIQUID OR PASTE COMPOSITIONS INTENDED TO PROVIDE ELEMENTS ESSENTIAL FOR THE SYNTHESIS AND FORMATION OF PROTEOGLYCANS, IN PARTICULAR, FOR THE TREATMENT OF CARTILAGE DEGRADATION” (priority 2007, published 2010).
Like-named read-outs stand apart in the source and are kept apart here. Blank lines part the entries; values can stand above or below the molecule they belong to.

Key:
[1] = 800 to 1200 mg/day; cited from earlier work
[2] = animals, labeled chondroitin; cited from earlier work
[3] = Coloring (Maillard reaction) of aqueous solutions on storage; type: physicochemical; settings: 6.0% in water by total weight of the composition
Procedure: At the chemical level, glucosamine, which can be of either natural or synthetic origin, is a glucose molecule to which an amino grouping has bonded. Consequently, in water without the addition of sugar, this molecule automatically leads to the appearance of a brown color of the solution by the condensation reaction of the different glucosamine molecules together. This appears clearly in an aqueous 7.5% glucosamine solution. After 8 months at 40° C., the solution takes on a caramel hue.
Three solutions have been produced, each containing 7.5% glucosamine by weight with respect to the total weight of the composition and 6.0% chondroitin sulfate by weight with respect to the total weight of the composition. In two solutions, anhydrous citric acid was added before the introduction of chondroitin sulfate. One of the solutions was heated at 100° C. for 10 minutes.

[4] = humans, dependent on the molecular weight; cited from earlier work
[5] = cited from earlier work
[6] = placebo-controlled; cited from earlier work
[7] = cited from earlier work; remark: listed apart in the source
[8] = taken orally; cited from earlier work
[9] = beyond a pH of 7.0; cited from earlier work
arthritic knee joint = settings: three to five injections at one-week intervals, on average; cited from earlier work

intensity of coloring compared with a pure 7.5% glucosamine solution [3]: ten times less intense
Molecule: chondroitin sulfate
Lequesne index [1]: improves the Lequesne index
articular joint space [1]: preserves the articular joint space
mobility [1]: improves mobility
pain [1]: reduces pain
absorption [2]: more than 66%
absorption [4]: around 15%
solubility in alcohols ([5]; ethanol, propanol-1 and isopropanol): insoluble

Molecule: CC(=O)Oc1cccc2c1C(=O)c1c(OC(C)=O)cc(C(=O)O)cc1C2=O [Diacerein]
articular joint space [6]: significant decrease in the articular joint space

Molecule: N[C@H]1C(O)O[C@H](CO)[C@@H](O)[C@@H]1O (stereo partly shown) [glucosamine]
efficacy on joint pain and swelling compared with ibuprofen ([7]; beginning in the second week of treatment): more effective than ibuprofen
articular joint space ([7]; in vivo): preserves the articular joint space
absorption [8]: ~90%
time until maximum concentration is reached [8]: 8 h
degradation [9]: degrades rapidly
solubility in water and in an alcohol medium [5]: highly soluble

Molecule: hyaluronic acid
duration of efficacy (arthritic knee joint): 8-9 months
